53 molecules from PubChem BioAssay AID179 (DTP/NCI, 2004) can be followed below.

The source made the active and inactive calls.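 The calls were made as follows: active = compounds giving half or more protection of infected cells from virus-caused growth loss, again on retest; inactive = the rest.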 A value given as a limit tells only on which side of the number the result lay.

This experiment has as its system CEM cells HIV-1 protection, formazan growth assay. Put plainly: NCI AIDS Antiviral Assay. The following applies: for IC50: measured here: growth of uninfected CEM cells. A digest of the protocol:
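Five concentrations of each compound were applied to infected and uninfected human CEM cells. Protection from HIV-1 was judged from growth measured with a soluble formazan assay.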

Regarding `COc1c(OC)c(C=O)c2c(OC)c(-c3c(C)cc4c(C(C)C)c(OC)c(OC)c(C=O)c4c3OC)c(C)cc2c1C(C)C`, the result was inactive. By EC50 is commonly meant the concentration needed to bring the measured effect to its halfway point. Usually IC50 stands for the concentration that inhibits the measured activity by half. Low readings indicate inhibition by little substance, high ones a need for much substance. Turning to `Nc1ccc2nc(Nc3ccc(F)cc3)cnc2c1`, the EC50 is over 20.4 µM and the IC50 is over 20.4 µM. Take `Nc1cc(F)ccc1CC(=O)O`: the EC50 was over 200 µM and the concentration for half-maximal inhibition (IC50) is over 200 µM. `c1ccc2c(c1)NC1CCN2C1` (centres undefined): the EC50 was over 813 µM and the IC50 is over 813 µM.

Turning to `CNC(=O)N1CN(c2ccccc2)C2(CCN(Cc3ccccc3)CC2)C1=O`, the EC50 was 195 µM and the IC50 is over 200 µM. In the case of `COc1cc2ccc1-c1cc(ccc1O)CC1c3cc4c(cc3CCN1C)Oc1c(OC)cc3c(c1O4)C(C2)N(C)CC3` (centres undefined), the outcome was inactive. For `Cc1cc(=O)n2nc(SCc3ccccc3)sc2n1`, the EC50 is over 200 µM and the concentration for half-maximal inhibition (IC50) is 81.3 µM. `Nc1ccc2nc(-c3ccccn3)c(-c3ccccn3)nc2c1`: the EC50 is 123 µM and the IC50 was over 200 µM. Turning to `O=C1CSC2=NCCN12`, the EC50 is over 200 µM, the outcome was inactive and the IC50 was over 200 µM. Consider `CCCCC(C(=O)CCC(=O)Nc1ccc(Cl)cc1)C(=O)C(C)C` (centres undefined), for which the EC50 is over 186 µM and the IC50 was over 186 µM.

As for `CCOC(=O)C(Cl)(NC(=O)OCc1ccccc1)C(F)(F)F` (centres undefined), the result was inactive.

As for `COC(=O)[C@H](Cc1ccccc1)NP(=O)(O)OCC1C=CC(n2cc(C)c(=O)[nH]c2=O)O1` (some centres undefined), the EC50 is 8.71 µM and the IC50 was over 200 µM. The like results for `Cc1cccc2c1c1ccc3c(c1n2C)C(=O)C=CC3=O` were, in that order, over 18.2 µM and 9.77 µM. Turning to `FC(F)(F)c1cc(C2SCc3nc4ccccc4n32)cc(C(F)(F)F)c1` (centres undefined), the EC50 was over 41.7 µM and the IC50 amounted to 7.08 µM. As for `Cc1nc(C)c(N2CCN(C(=O)NC(CCC(=O)O)C(=O)O)CC2)c(=O)[nH]1` (centres undefined), the EC50 was over 200 µM and the half-maximal inhibitory concentration (IC50) was over 200 µM. Turning to `COc1ccc2nc3ccccc3c(NCCCCN(C)CCCl)c2c1`, the EC50 was over 2 µM and the IC50 was found to be 0.151 µM.

Regarding `CC(=NNC(=S)Nc1ccc(C)cc1)c1cccc(C(C)=NNC(=S)Nc2ccc(C)cc2)n1`, the EC50 is over 200 µM and the IC50 came to 15.1 µM. The like results for `Nc1nccc(NCC2(CO)CC(CCc3ccccc3)C2)n1` (centres undefined) were, in that order, over 200 µM and 10.5 µM. On to `Cc1ccc(S(=O)(=O)NC(=O)OC23COCN2COC3)cc1`, for which the EC50 is over 759 µM and the IC50 turned out to be 132 µM.

Take `CO/N=C(\C(=O)OC(=NC1CCCCC1)NC1CCCCC1)c1csc(NC(c2ccccc2)(c2ccccc2)c2ccccc2)n1`: the EC50 is over 200 µM and the IC50 was found to be 52.5 µM. On the same counts, the results for `COc1ccc(N2C(=O)C3c4[nH]c5ccc(F)cc5c4C4CCC(C(C)(C)C)CC4C3C2=O)cc1` (centres undefined) are over 200 µM and 22.4 µM. In the case of `C[S+](C)CCOC(=O)C(=[N+]=[N-])c1ccc([N+](=O)[O-])cc1`, the outcome was inactive. As for `CCOc1cnc([C@H]2CCC3[C@@H]4CC=C5C[C@@H](OC(C)=O)CC[C@]5(C)C4CC[C@@]32C)s1` (some centres undefined), the EC50 is over 21.4 µM and the half-inhibitory concentration (IC50) was over 21.4 µM. For `COC(=O)c1cc(C(=C2CC2)c2cc(Br)c(OC)c(C(=O)OC)c2)cc(Br)c1OC`, the EC50 was over 200 µM and the concentration for half-maximal inhibition (IC50) is 14.1 µM.

Consider `O=c1c2ccccc2oc2c1ccc1ncccc12`, for which the EC50 was over 200 µM and the concentration for half-maximal inhibition (IC50) stood at 6.61 µM. In the case of `Cc1cccc(C)c1N=O`, the outcome was inactive. In the case of `COc1c(C)c(O)c2c(c1C)OC(c1ccccc1)CC2=O` (centres undefined), the EC50 is over 17.4 µM and the IC50 was over 17.4 µM. Take `N#CCCN(CCC#N)CCN(CCN(CCC#N)CCC#N)CCN(CCC#N)CCC#N`: the EC50 was over 200 µM and the concentration for half-maximal inhibition (IC50) was over 200 µM. Consider `O=C1NN=C(c2ccc(Cl)cc2)CC1C1C(=O)N(c2ccccc2)N=C1c1ccccc1` (centres undefined), for which the EC50 was over 100 µM and the IC50 was 49 µM.

As to `CC1CN(c2ccccc2)NC1=O` (centres undefined), the EC50 is over 200 µM and the IC50 was over 200 µM. With `CC12CC3CC(C)(C1)CC(SCCCCCN=C(N)CSSCC(N)=NCCCCCSC14CC5CC(C)(CC(C)(C5)C1)C4)(C3)C2`, the EC50 is over 200 µM and the IC50 is 26.9 µM. For the molecule `O=c1[nH]nc(-c2ccccc2)n1/N=C\CC/C=N\n1c(-c2ccccc2)n[nH]c1=O`, the result was inactive. Regarding `CC(C)(C)OC(=O)C1CCC/C1=N/Nc1ccc([N+](=O)[O-])cc1[N+](=O)[O-]` (centres undefined), the EC50 was over 200 µM and the IC50 was 30.2 µM.

Take `O=C1NC2c3ccccc3CCC12` (centres undefined): the EC50 was over 1450 µM and the 50% inhibitory concentration (IC50) is over 1450 µM.

With `O=C1NN(c2ccccc2)[C@@H]2CCCC[C@H]12`, the EC50 was over 437 µM and the IC50 was over 437 µM. Take `CCC(C)C1NC(=O)C(N(C)C)Cc2cc(ccc2OC)/C=C/NC(=O)C(Cc2ccccc2)NC1=O` (centres undefined): the EC50 is over 35.5 µM and the 50% inhibitory concentration (IC50) is over 35.5 µM. `Cc1c2cc(Br)ccc2nc(CCl)[n+]1[O-]`: the EC50 is over 20 µM and the IC50 was 0.977 µM. `CN(C)c1ccc(CC2CCc3ccccc32)cc1` (centres undefined): the EC50 is over 20.9 µM and the half-inhibitory concentration (IC50) was over 20.9 µM. Consider `CO/C(=N\Nc1ccc([N+](=O)[O-])cc1)P(=O)(OC(C)C)OC(C)C`, for which the EC50 is over 12.9 µM and the IC50 is over 12.9 µM. Take `CCC1C(C(=O)Nc2ccccc2C)=C(C)NC(C)=C1c1ccccc1C` (centres undefined): the EC50 is over 186 µM and the IC50 is over 186 µM. As for `CCCCN=C(OC1C=CCCC1)SC` (centres undefined), the EC50 is over 200 µM and the IC50 worked out at 155 µM. Consider `COc1nc2n[nH]nc2c(=O)[nH]1`, for which the result was inactive. For `COc1cc2ccc3c(c2cc1OC)CCc1cn[nH]c1-3`, the EC50 was over 9.77 µM and the IC50 is over 9.77 µM. Take `COc1ccc(C2OC(=O)c3cc[nH]c(=O)c32)cc1` (centres undefined): the EC50 is over 141 µM and the 50% inhibitory concentration (IC50) was over 141 µM. Consider `COc1ccc(O)c2c(=O)c3cc(O)ccc3oc12`, for which the EC50 is over 200 µM and the IC50 came out at 30.2 µM. On the same counts, the results for `COCC1=C(NNC(=O)c2ccncc2)[C@@]2(C)C(=CC1=O)Oc1c(C(C)=O)c(O)c(C)c(O)c12` are over 200 µM and 47.9 µM. For `COc1ccc(C2C(C#N)=C(S)N(C3OC(CO)C(O)C(O)C3O)C(c3ccccc3)=C2C(C)=O)cc1` (centres undefined), the EC50 was over 200 µM and the IC50 was 89.1 µM. On the same counts, the results for `CCP(=O)(CC)C(Cl)(Cl)C(O)C(C)(C)C` (centres undefined) are over 200 µM and over 200 µM. On the same counts, the results for `O=C1c2cc([N+](=O)[O-])ccc2-c2c(S)cccc21` are over 200 µM and 50.1 µM. Turning to `O=S1c2ccccc2N=C(c2cccs2)CC1c1ccccc1O` (centres undefined), the EC50 is over 10.7 µM and the IC50 was over 10.7 µM. Consider `OCC1OC(n2cnc3c(Cl)nc(Nc4ccc(Cl)c(Cl)c4)nc32)CC1O` (centres undefined), for which the EC50 is over 200 µM and the 50% inhibitory concentration (IC50) came to 3.72 µM.

Take `CCOC(=O)c1ccc(NCc2ccc3oc(=O)c(-c4ccccc4)nc3c2)cc1`: the EC50 is over 135 µM and the IC50 was determined as 38.9 µM.

For `BrCC[N+]12CCCN1CCC2`, the result was inactive.
